Here are results for 16 compounds from paper PMC12029836, “Phytotoxicity, Cytotoxicity, and Antimicrobial Activity of Triethanolammonium Amino Acids Salts” (Molecules, 2025).

Data set [1] relates to cress. Set-up: method as in doi:10.1134/S0036023620090089. To be noted: cited from earlier work.
In a further data set the test system is CaCo-2. Set-up: method as in doi:10.1039/C4TX00079J. To be noted: CaCo-2 ref 39; cited from earlier work.
The test system of a further data set is NIH/3T3. Set-up: method as in doi:10.1039/C4TX00079J. To be noted: NIH/3T3 ref 39; cited from earlier work.
The test system of data set [2] is cress. Set-up: method as in PMID 19052732. To be noted: cress seed, highest concentration of 1000 mg L^−1 ref 17; cited from earlier work.
Details of data set [3]: method as in PMID 28665154. To be noted: cited from earlier work.
The subject of data set [4] is 3T3 cell (mouse embryonic fibroblasts). The note with it: cited from earlier work.
For a further data set, the system named is L929 fibroblasts. Kind of data set: Mammalian cell cytotoxicity screening, resazurin viability. In kind it is cell-based, mouse. (In general: The colour change of resazurin is a common sign of viable cells or microbes.)
A further data set deals with S. aureus ATCC 6538. Kind of data set: Antimicrobial activity, broth microdilution MIC/MBC. In kind it is cell-based, Staphylococcus aureus. To be noted: S. aureus ATCC 6538, 24 h at 37 °C, at least 90% growth inhibition; nd—not detected.
The subject of the next data set is E. coli ATCC 8739. The data set is described as above. In kind it is cell-based, Escherichia coli. The note with it: nd—not detected; for MIC (%): E. coli ATCC 8739, 24 h at 37 °C, at least 90% growth inhibition; for MBC (%): E. coli ATCC 8739.
The next data set concerns C. albicans ATCC 10231. Described as above. In kind it is cell-based, Candida albicans. The note with it: nd—not detected; for MIC (%): C. albicans ATCC 10231, 24 h at 37 °C, at least 90% growth inhibition.
Data set [5] concerns Lepidium sativum L. seeds. To be noted: 24 h incubation, mean(±SD), n = 3.
For data set [6], the system named is Lepidium sativum L. roots. To be noted: 24 h incubation, mean(±SD), n = 3.
The test system of the next data set is E. coli. Set-up: method as in doi:10.3139/113.110524. The note with it: E. coli ref 49; cited from earlier work.
Setting [7] is: 0.01% (w/w) compound in the medium.
[8] abbreviates: 0.03% (w/w) compound in the medium.
[9] abbreviates: 0.05% (w/w) compound in the medium.
Setting [10] is: 0.10% (w/w) compound in the medium.
[11] abbreviates: 0.30% (w/w) compound in the medium.
Setting [12] is: 0.50% (w/w) compound in the medium.
Where [13] appears, read: 1.00% (w/w) compound in the medium.
Setting [14] is: 2.00% (w/w) compound in the medium.
Where [15] appears, read: 3.00% (w/w) compound in the medium.
Where [16] appears, read: 4.00% (w/w) compound in the medium.
Where [17] appears, read: 5.00% (w/w) compound in the medium.

Values joined by “and” are separate entries in the source; they are usually repeats but may differ in a detail not shown here. Equal values may be shown once. Read-outs that look alike come from different tables or passages of the source.

As to `O=C(O)c1ccccc1O.OCCN(CCO)CCO` [TEA salicylate], the “effect on root and shoot length” value in the data set on cress [1] (0.03 mg L^−1 ref 12) is listed as “significant inhibition effect”.

As for `CCCCn1cc[n+](C)c1.C[C@H](N)C(=O)[O-]` [[BMIM][Ala]], the IC50 in the data set with CaCo-2 is 19.3 mM; in the data set with NIH/3T3, 30.2 mM.

`CCCCn1cc[n+](C)c1` [[BMIM][BF4]]: the IC50 in the data set with CaCo-2 is 11.2 mM; with NIH/3T3, 11.3 mM.

`CCCCn1cc[n+](C)c1` [[BMIM][(L)-Lac]]: the IC50 was 19.2 mM with CaCo-2 and 33.6 mM in the data set with NIH/3T3.

Regarding `CCn1cc[n+](C)c1.[Cl-]` [[EMIM][Cl]], the decrease in germination in the data set on cress [2] was 85%.

`C[N+](C)(C)CCO.NC(Cc1ccccc1)C(=O)[O-]` (stereo not drawn) [[Cho][Phe]]: the IC50 in [3] is 0.42 % (v/v).

As for `C[N+](C)(C)CCO.N[C@@H](CCC(=O)O)C(=O)[O-]` [[Cho][Glu]], the IC50 in [3] is recorded as 0.43 % (v/v).

Turning to `C[N+](C)(C)CCO.NCC(=O)[O-]` [[Cho][Gly]], the Cell viability result in data set [4] is “over 90%”.

As for `CC(N)C(=O)O.OCCN(CCO)CCO` [[TEA][Ala]], the results for the ED20 in the data set with L929 fibroblasts (24h exposure) and with L929 fibroblasts (48h exposure) were 0.54±0.06% and 0.25±0.03%, respectively. Also, the ED50 in the data set on L929 fibroblasts (24h exposure) was 0.57±0.04%; in the data set on L929 fibroblasts (48h exposure), 0.42±0.02%. Besides, the ED80 in the data set on L929 fibroblasts (24h exposure) is listed as 0.59±0.11%; with L929 fibroblasts (48h exposure), 0.63±0.03%. Also, the “MIC (%)” value in the data set on S. aureus ATCC 6538 is reported as 7.50%; against E. coli ATCC 8739, 3.75%; in the data set with C. albicans ATCC 10231, 1.88%. Also, the “MBC (%)” value in the data set with E. coli ATCC 8739 worked out at 7.50%. Moreover, the “Inhibition of the Lepidium sativum seeds germination (ISG, %)” value (“Inhibition … (ISG, %)” for short) in data set [5] (setting [7]) is given as 0.0(±1.2) %; in data set [5] (setting [8]), 0.0(±0.8) %; in [5] (setting [9]), 0.0(±1.2) %; in data set [5] (setting [10]), 0.0(±0.8) %; in [5] (setting [11]), 0.0(±0.5) %; in data set [5] (setting [12]) it was 9.4(±1.4) %. Moreover, the “Inhibition … (ISG, %)” value in [5] (setting [13]) was 11.8(±1.6) %; in data set [5] (setting [14]) it was 17.7(±0.8) %; in [5] (setting [15]), 64.7(±0.8) %; in data set [5] (setting [16]) it was 88.3(±1.3) %; in [5] (setting [17]), 100.0(±0.5) %. Besides, the “Inhibition of the root growth in pregerminated Lepidium sativum seeds (IRG, %)” value (shortened to “Inhibition of the root growth … (IRG, %)”) is listed as 0.0(±0.0) % in data set [6] (setting [7]); 0.0(±0.0) % in data set [6] (setting [8]); 14.8(±1.5) % in [6] (setting [9]); 19.7(±1.4) % in data set [6] (setting [10]); 27.9(±1.2) % in data set [6] (setting [11]); 36.1(±1.2) % in data set [6] (setting [12]). For the same compound, the “Inhibition of the root growth … (IRG, %)” value in data set [6] (setting [13]) is 55.2(±0.8) %; in [6] (setting [14]), 67.2(±1.0) %; in data set [6] (setting [15]), 77.6(±0.6) %; in [6] (setting [16]), 79.3(±0.6) %; in data set [6] (setting [17]) it was 89.7(±0.5) %.

Take `N[C@@H](CC(=O)O)C(=O)O.OCCN(CCO)CCO` [[TEA][Asp]]: the ED20 with L929 fibroblasts (24h exposure) is listed as 0.47±0.03%; in the data set on L929 fibroblasts (48h exposure), 0.30±0.02%. Also, the ED50 in the data set on L929 fibroblasts (24h exposure) stood at 0.66±0.03%; in the data set on L929 fibroblasts (48h exposure), 0.50±0.01%. In addition, the ED80 in the data set with L929 fibroblasts (24h exposure) was 0.86±0.09%; with L929 fibroblasts (48h exposure), 0.71±0.01%. In addition, the “MIC (%)” value against S. aureus ATCC 6538 is on record as 15%; in the data set with E. coli ATCC 8739, 7.50%; in the data set on C. albicans ATCC 10231 it was 15%. In addition, the “MBC (%)” value against E. coli ATCC 8739 and against C. albicans ATCC 10231 (C. albicans ATCC 10231) was 15% throughout. The “Inhibition … (ISG, %)” value in data set [5] (setting [7]), in data set [5] (setting [8]), in [5] (setting [9]), in [5] (setting [10]), in data set [5] (setting [11]) and in [5] (setting [12]) was 0.0(±0.0) % in each case. Further, the “Inhibition … (ISG, %)” value in data set [5] (setting [13]) is recorded as 0.0(±0.0) %; in [5] (setting [14]), 0.0(±0.0) %; in data set [5] (setting [15]), 3.5%; in [5] (setting [16]), 16.2(±1.3) %. For the same compound, the “Inhibition of the root growth … (IRG, %)” value in data set [6] (setting [7]) is 0.0(±0.0) % and 0%; in data set [6] (setting [8]) it was 0.0(±0.0) % and 0%; in data set [6] (setting [9]), 0.0(±0.0) % and 0%; in data set [6] (setting [10]) it was 0.0(±0.0) % and 0%; in [6] (setting [11]), 9.1%; in data set [6] (setting [12]), 12.9%. Moreover, the “Inhibition of the root growth … (IRG, %)” value in data set [6] (setting [14]) is 43.9(±1.3) %; in data set [6] (setting [15]) it was 44.2(±1.0) %; in data set [6] (setting [16]) it was 56.3(±1.0) %; in data set [6] (setting [17]), 68.3%.

Turning to `O=C(O)C=Cc1ccccc1.OCCN(CCO)CCO` [TEA salt of cinnamic acid], the “effect on cress seed germination and root growth” value with cress [1] (0.003 and 0.03 mg L^−1 ref 12) is “most visible stimulation”.

For the compound `NCC(=O)O` [[Cho][Gly]], in data set [4] (3T3 cells, 48 h, printed also as (1%) ref 34), the IC50 was approximately 55 mM.

In the case of `CCCCn1cc[n+](C)c1` [[BMIM][PF6]], the IC50 with CaCo-2 is 11.5 mM.

Regarding benzalkonium chloride, the minimal inhibitory concentration (MIC) with E. coli is 15 µg/mL.

As for `NC(CO)C(=O)O.OCCN(CCO)CCO` [[TEA][Ser]], the ED20 in the data set with L929 fibroblasts (24h exposure) is 0.26±0.03%. In addition, in the data set on L929 fibroblasts (24h exposure), the ED50 is 0.55±0.04%. Further, the ED80 in the data set with L929 fibroblasts (24h exposure) came to 0.98±0.11%. Moreover, the entries for the “MIC (%)” value in the data set with S. aureus ATCC 6538, against E. coli ATCC 8739 and with C. albicans ATCC 10231 were 7.50%, 7.50% and 3.75%, respectively. The “MBC (%)” value against E. coli ATCC 8739 is on record as 7.50%. The “Inhibition … (ISG, %)” value in data set [5] (setting [7]) is on record as 0.0(±0.0) %; in data set [5] (setting [8]) it was 0.0(±0.0) %; in [5] (setting [9]) it was 0.0(±0.0) %; in [5] (setting [10]), 2.8(±1.7) %; in data set [5] (setting [11]), 5.7(±1.3) %; in [5] (setting [12]) it was 6.6(±0.9) %. Moreover, the “Inhibition … (ISG, %)” value in data set [5] (setting [13]) was 7.5(±1.7) %; in [5] (setting [14]), 17.0(±0.5) %; in [5] (setting [16]), 34.0(±2.6) %. The “Inhibition of the root growth … (IRG, %)” value is 0.0(±0.0) % and 0% in [6] (setting [7]); 0.0(±0.0) % and 0% in data set [6] (setting [8]); 0.0(±0.0) % and 0% in data set [6] (setting [9]); 14.6% in data set [6] (setting [11]); 25.3% in data set [6] (setting [12]); 70.2(±0.7) % in data set [6] (setting [13]). The “Inhibition of the root growth … (IRG, %)” value is on record as 77.8(±0.6) % in data set [6] (setting [14]), 79.5(±0.6) % in data set [6] (setting [15]), 81.3(±0.5) % in data set [6] (setting [16]) and 91.2(±0.4) % in data set [6] (setting [17]).

As to `CCCCCCn1cc[n+](C)c1.[Cl-]` [[HMIM][Cl]], the decrease in germination with cress [2] is 100%.

By MIC is commonly meant the least concentration at which growth counts as inhibited.
